Test results reported in patent publication US6630489B1, “Quinoline derivatives as tyrosine kinase inhibitors” (Astrazeneca AB, priority 1999, dated 2003).

Tests used:
[1] = system: human peripheral blood mononuclear cells (T cell proliferation); assay: In vitro T cell proliferation assay, Test (b)(i): T cell receptor stimulation (anti-CD3 antibody); assay type: cell-based; settings: human PBMC, T cell receptor stimulation with anti-CD3 antibody, tritiated thymidine
Method: (§1) (b) In vitro T Cell Proliferation Assays
(§2) The ability of test compounds to inhibit T cell proliferation was assessed by using human peripheral blood mononuclear cells and stimulation of the T cells by way of the T cell receptor or other than by way of the T cell receptor.
Peripheral blood mononuclear cells (PBMC) were isolated from heparinised (10 units/ml heparin) human blood by density centrifugation (Lymphoprep™; Nycomed) spinning initially at 2000 rpm at ambient temperature for 20 minutes. Cells at the interphase were transferred to clean tubes, diluted 1:1 with RPMI 1640 medium (Gibco) and spun at 2000 rpm at ambient temperature for 10 minutes. The cell pellet was resuspended in RPMI 1640 medium and spun at 1400 rpm at ambient temperature for 10 minutes. […]
(§3) The extent of inhibition of T cell proliferation at a range of concentrations of each test compound was determined and an IC50 value was calculated. […]
Aliquots (50 μl) of the T cell receptor stimulatory anti-CD3 antibody (Pharmingen Catalogue No. 30100D; 40 ng/ml in assay medium) were added to each well and the cells were incubated for 24 hours at 37° C. in a humidified (5%CO2/95% air) incubator. […] The cells were harvested onto a filter mat and radioactivity was counted using a Wallac 1450 Microbeta Plus liquid scintillation counter.

[2] = biological target: T1, p56^lck enzyme (Homo sapiens, UniProt P06239); assay: In vitro enzyme assay, Test (a): inhibition of p56lck phosphorylation of a tyrosine-containing polypeptide substrate (Elisa); assay type: biochemical; settings: inhibition of phosphorylation by p56lck
T1 construct: fused on or other part: N-terminal 6-His tag
Method: (a) In vitro Enzyme Assay
The ability of test compounds to inhibit phosphorylation by the enzyme p56^lck of a tyrosine-containing polypeptide substrate was assessed using a conventional Elisa assay.
The following conventional procedure was used to obtain p56^lck enzyme. An EcoR1/Not1 fragment containing the entire coding sequence of p56^lck was generated by the technique of polymerase chain reaction (PCR) from Incyte clone No. 2829606. A 6-His tag was added to the sequence at the N-terminus during the PCR stage. Conventional sequence analysis identified a number of changes compared to the published sequence and these were found also to have been present in the original Incyte template. To achieve expression of the enzyme, the PCR fragment was inserted downstream of the polyhedrin promotor of pFASTBAC1 (Life Technologies Limited, Paisley, UK, Catalogue No. 10360-014). A recombinant Baculovirus was constructed using the Bac-to-Bac system (Life Technologies Limited). High Five insect cells (Invitrogen BV, PO Box 2312, 9704 CH Groningen, The Netherlands, Catalogue No. B855-02) were infected with the recombinant Baculovirus at a multiplicity of infection of 1 and incubated for 48 hours. The cells were harvested. […]

[3] = system: human peripheral blood mononuclear cells (T cell proliferation); assay: In vitro T cell proliferation assay, Test (b)(ii): non T cell receptor stimulation (PMA and Ionomycin); assay type: cell-based; settings: human PBMC, stimulation with PMA and Ionomycin, tritiated thymidine
Method: as §1, §2
Peripheral blood mononuclear cells (PBMC) were isolated from heparinised (10 units/ml heparin) human blood by density centrifugation (Lymphoprep™; Nycomed) spinning initially at 2000 rpm at ambient temperature for 20 minutes. Cells at the interphase were transferred to clean tubes, diluted 1:1 with RPMI 1640 medium (Gibco) and spun at 2000 rpm at ambient temperature for 10 minutes. The cell pellet was resuspended in RPMI 1640 medium and spun at 1400 rpm at ambient temperature for 10 minutes. The cell pellet was resuspended in RPMI 1640 medium and spun at 900 rpm at ambient temperature for 10 minutes to remove platelets. […]
as §3
Aliquots (50 μl) of a mixture of the cell stimulants PMA (phorbol-12-myristate-13-acetate, Sigma Catalogue No. P8139; 40 ng/ml) and Ionomycin (Sigma Catalogue No. I0684; 1.2 μM) were added to each well and the cells were incubated and analysed as described in paragraph (b)(i).

T1 sequence (P06239 whole entry, the tested form may be a part): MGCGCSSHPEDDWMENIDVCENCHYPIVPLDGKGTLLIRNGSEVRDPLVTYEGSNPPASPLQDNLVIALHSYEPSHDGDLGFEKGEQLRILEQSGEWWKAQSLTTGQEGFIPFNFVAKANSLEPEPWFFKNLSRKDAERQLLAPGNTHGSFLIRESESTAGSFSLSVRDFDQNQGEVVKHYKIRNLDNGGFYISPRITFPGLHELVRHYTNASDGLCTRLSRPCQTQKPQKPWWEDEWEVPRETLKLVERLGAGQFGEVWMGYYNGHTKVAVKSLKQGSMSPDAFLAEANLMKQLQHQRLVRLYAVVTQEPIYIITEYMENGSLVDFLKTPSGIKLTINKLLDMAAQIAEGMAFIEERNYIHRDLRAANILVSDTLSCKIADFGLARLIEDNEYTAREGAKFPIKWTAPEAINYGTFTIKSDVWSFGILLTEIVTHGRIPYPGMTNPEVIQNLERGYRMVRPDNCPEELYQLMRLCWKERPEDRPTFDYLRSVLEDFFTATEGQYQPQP

With `COc1cc2nccc(Oc3ccc(Cl)cc3F)c2cc1C(=O)NCCCN1CCOCC1` [Example 1, 4-(4-chloro-2-fluorophenoxy)-7-methoxy-N-(3-morpholinopropyl)quinoline-6-carboxamide] the IC50 [1] was about 700 nM, the IC50 [2] was about 30 nM and the IC50 [3] was about 18 µM.
